Series [1] deals with T1, catalytic domain of human Bub1 (amino acids 704-1085) (Homo sapiens, UniProt O43683).
T1 construct: catalytic domain of human Bub1 (amino acids 704-1085); His6 (N); made in house; host or cells: Hi5 insect cells
Nature of the series: Equilibrium probe competition assay (TR-FRET kinase binding assay). As to conditions: read-out: Assay 5 IC50. The method, then: The half-life of prodrugs (Table 3) poses a challenge for the verification of their biological activity. The Bub1 enzymatic activity assay (as per Biological Assay 1.0 infra) requires a minimum reaction time of 60 minutes in order to be able to assess the inhibitory activity of the compounds. During this time typically 20% to 60% of the prodrugs have been already converted to their corresponding drugs at the pH of 7.5 at which the assay is performed. Ideally one would perform the biological assay at a pH at which the prodrug is stable (e.g. pH 4). […] Alternatively, an assay requiring shorter incubation times would better estimate the binding affinities of the prodrugs. […] Extrapolating the stability data from Tables 3 and 4, one would expect at this time point most of the compound present in the test solution to be the prodrug.
FIGS. 1 and 2 combine the results from Biological Assay 5 with those from Biological Assay 6. The binding affinities over time of drug and prodrug pairs are shown as pIC50 together with the prodrug stability, and the pIC50 to be expected if only the drug present in the sample was responsible for the activity in the assay. Extrapolating the pIC50 from these graphs to time 0 (at which 100% of prodrug is present in the sample), the actual affinity of the drug and prodrug can be inferred. Secondly, looking at the differences between expected and real pIC50 an estimate can be made about the contribution of the prodrug to the observed activity.
Biological Assay 5.0: Equilibrium Probe Competition Assay:
Bub1 binding affinity of compounds described in the present invention were quantified using a time-resolved fluorescence energy transfer (TR-FRET) kinase binding assay which measures displacement of the synthetic fluorescent probe 5-[({2-[2-({2-[1-(4-ethoxy-2,6-difluorobenzyl)-1H-indazol-3-yl]-4-(pyridin-4-ylamino)pyrimidin-5-yl}oxy)ethoxy]ethyl}carbamothioyl)amino]-2-(6-hydroxy-3-oxo-3H-xanthen-9-yl)benzoic acid (6-5-1) by the (recombinant) catalytic domain of human Bub1 (amino acids 704-1085). The enzyme was expressed in Hi5 insect cells with N-terminal 6×His/AviTag® sequences, purified by affinity- (Ni-NTA) and size exclusion chromatography and site-specific biotinylated ex-vivo using a commercially available kit (Avidity).
In a typical assay 11 different concentrations of each compound (0.1 nM, 0.33 nM, 1.1 nM, 3.8 nM, 13 nM, 44 nM, 0.15 μM, 0.51 μM, 1.7 μM, 5.9 μM and 20 μM) were tested in duplicate within the same microtiter plate. To this end, 100-fold concentrated compound solutions (in DMSO) were made by serial dilution (1:3.4) of freshly prepared 2 mM stocks in a clear low volume 384-well source microtiter plate (Greiner Bio-One, Frickenhausen, Germany), from which 50 nl of compounds were transferred into a black low volume test microtiter plate from the same supplier. Subsequently 2 μL of a solution containing biotinylated Bub1 (the final concentration of Bub1 was adjusted depending on the activity of the enzyme lot in order to be within the linear dynamic range of the assay: typically ˜[…] were used) and 1 nM Streptavidin Terbium Cryptate (Cisbio, No. 610SATLB) in aqueous assay buffer [50 mM Tris/HCl pH 7.5, 200 mM potassium chloride (KCl), 1.0 mM dithiothreitol (DTT), 0.1 mM sodium ortho-vanadate, 1% (v/v) glycerol, 0.01% (w/v) bovine serum albumine (BSA), 0.005% (v/v) Triton X-100 (Sigma), were added to the compounds in the test plate and the mixture was incubated for 15 min at 22° C. to allow pre-equilibration of the putative enzyme-inhibitor complexes before the start of the probe competition reaction, which was initiated by the addition of 3 μL 1.67-fold concentrated solution (in assay buffer) of 6-5-1 (final concentration: 1.5 nM). The resulting mixture (5 μL final volume) was incubated at 22° C. during 0, 15, 30, 60, 120, 240 and 1440 min. […]
In general terms: In TR-FRET formats the signal depends on donor and acceptor labels being close together.

A short description of series [2]: Stability in buffer at various pH values (HPLC detection). Type of series: physicochemical. The note with it: 37° C., remaining prodrug; for Stability pH 4: % Test Compound after 4 h [F(t = 4 h) × 100/F(t = 0 h)]: pH 4 buffer; for Stability pH 7.4: % Test Compound after 4 h [F(t = 4 h) × 100/F(t = 0 h)]: pH 7.4 buffer. The method, then: Stability in Buffer at Various pH Values (HPLC Detection)
0.3 mg of the test compound was solved in 0.1 ml dimethylsulfoxide and 0.4 ml acetonitrile. For complete dissolution the HPLC vial with the sample solution was sonified for about 20 seconds. Then 1.0 ml of the respective buffer solution was added and the sample was again treated in the ultrasonic bath.
• pH 4.0: Fluka buffer, Order No. 33643 (11.76 g citric acid, 2.57 g sodium chloride and 2.72 g sodium hydroxide) • pH 7.4: 90 g of sodium chloride, 13.61 g of potassium dihydrogen phosphate and 83.35 g of 1 M sodium hydroxide solution were made up to 1 L with Millipore water and then diluted 1:10. • 10 μl portions of the sample solution were analysed by HPLC at different times (0 h, 1 h, 2h, 4h and 24h) at 37° C. The peak areas in percentage were used for quantification. HPLC Method: • Agilent 1100 with DAD (G1315B), binary pump (G1312A), autosampler (G1329A), column oven (G1316A), thermostat (G1330B); column: Kromasil 100 C18, 250 mm×4 mm, 5 μm; column temperature: 37° C.; eluent A: water+5 ml of perchloric acid/litre, eluent B: acetonitrile. Gradient: • 0 min 98% A, 2% B→0-3.0 min 85% A, 15% B→3.0-8.0 min 50% A, 50% B→8.0-16.0 min 50% A, 50% B→16.0-20.0 min 10% A, 90% B→20.0-21.0 10% A, 90% B→21.0-24.0 min 98% A, 2% B→24.0-25.0 min 98% A, 2% B; flow rate: 1.5 ml/min; UV detection: 210 nm.
The ratios of the peak area (F) at different times in relation to the peak area at the starting point are shown in Table 3 for representative examples: […]

SMILES strings stand for the structures. pIC50: −log10 of the molar value. Where a name gives a salt, the structure may show the parent alone. Read-outs that look alike come from different tables or passages of the source.

Take `COc1cnc(-c2nn(Cc3c(F)cc(OCCOC(=O)[C@H](C)NC(=O)[C@@H](N)CCCCN)cc3F)c3ccccc23)nc1Nc1ccnc(C)c1` [Example 4-1-1, 2-{3,5-difluoro-4-[(3-{5-methoxy-4-[(2-methylpyridin-4-yl)amino]pyrimidin-2-yl}-1 H-indazol-1-yl)methyl]phenoxy}ethyl L-lysyl-L-alaninate, salt with trifluoroacetic acid]: the negative-log IC50 (pIC50) in series [1] (Time 15 min) was 7.77; in series [1] (Time 30 min), 8.00; in series [1] (Time 60 min) it was 7.92; in series [1] (Time 90 min), 8.00; in series [1] (Time 120 min), 8.14; in series [1] (Time 240 min), 8.24. Besides, in series [1] (Time 1440 min), the negative logarithm of the IC50 (pIC50) was 8.57. For the same compound, the “Stability pH 4: % Test Compound after 4 h [F(t = 4 h) × 100/F(t = 0 h)]” value (from here on “Stability pH 4: % Test Compound”) in series [2] came out at 100%. Moreover, the “Stability pH 7.4: % Test Compound after 4 h [F(t = 4 h) × 100/F(t = 0 h)]” value (“Stability pH 7.4: % Test Compound” below) in series [2] amounted to 4%.
Consider `COc1cnccc1Nc1nc(-c2nn(Cc3c(F)cc(OCCOC(=O)[C@H](C)NC(=O)[C@@H](N)CCCCN)cc3F)c3ccccc23)ncc1OC` [Example 4-1-2, 2-{3,5-difluoro-4-[(3-{5-methoxy-4-[(3-methoxypyridin-4-yl)amino]pyrimidin-2-yl}-1H-indazol-1-yl)methyl]phenoxy}ethyl L-lysyl-L-alaninate, salt with trifluoroacetic acid], for which the negative logarithm of the IC50 (pIC50) in series [1] (Time 15 min) is 8.57; in series [1] (Time 30 min), 8.64; in series [1] (Time 60 min) it was 8.66; in series [1] (Time 90 min) it was 8.89; in series [1] (Time 120 min) it was 9.00; in series [1] (Time 240 min) it was 9.16. Besides, in series [1] (Time 1440 min), the negative-log IC50 (pIC50) was 9.44. The “Stability pH 4: % Test Compound” value in series [2] is reported as 100%. Further, the “Stability pH 7.4: % Test Compound” value in series [2] came to 5%.
As for `COc1cnc(-c2nn(Cc3c(F)cc(OCCOC(=O)[C@H](C)NC(=O)[C@H](N)CCCCN)cc3F)c3ccccc23)nc1Nc1ccnc(F)c1` [Example 4-1-3, 2-{3,5-difluoro-4-[(3-{4-[(2-fluoropyridin-4-yl)amino]-5-methoxypyrimidin-2-yl}-1H-indazol-1-yl)methyl]phenoxy}ethyl D-lysyl-L-alaninate, salt with trifluoroacetic acid], in series [2], the “Stability pH 4: % Test Compound” value is 100% and the “Stability pH 7.4: % Test Compound” value was found to be 0%.
On the same counts, the results for `COc1cnc(-c2nn(Cc3c(F)cc(OCCOC(=O)[C@H](C)NC(=O)[C@@H](N)CCCCN)cc3F)c3ccccc23)nc1Nc1ccnc(F)c1` [Example 4-1-4, 2-{3,5-difluoro-4-[(3-{4-[(2-fluoropyridin-4-yl)amino]-5-methoxypyrimidin-2-yl}-1H-indazol-1-yl)methyl]phenoxy}ethyl L-lysyl-L-alaninate, salt with trifluoroacetic acid] are 100% and 9%.
On the same counts, the results for `COc1cnc(-c2nn(Cc3c(F)cc(OCCOC(=O)[C@H](C)NC(=O)[C@@H](N)CCCCN)cc3F)c3ccccc23)nc1Nc1ccncc1` [Example 6-2-1, 2-[3,5-difluoro-4-({3-[5-methoxy-4-(pyridin-4-ylamino)pyrimidin-2-yl]-1 H-indazol-1-yl}methyl)phenoxy]ethyl L-lysyl-L-alaninate, salt with trifluoroacetic acid, reference compound] are 100% and 3%.

The term pIC50 denotes the IC50 on a negative log10 scale, so that one unit is a factor of ten.
